Patent publication US7476764B2, “Phenylcarboxyamides as beta-secretase inhibitors” (Bristol-Myers Squibb Company, priority 2005, dated 2009)
pIC50: −log10 of the molar value. Where a name gives a salt, the structure may show the parent alone.

Each compound was assayed against T1, BACE1 enzyme (Homo sapiens, UniProt P56817) (assay: Radioligand displacement assay with a radiolabeled BACE inhibitor on HEK293-9B.A1 cell homogenate). Settings: displacement of 1 nM tritiated radioligand, HEK293-9B.A1 homogenate, pH 5.0, 1.5 hr at 25° C.; read-out: Activity Rating (activity based on IC50 values).
T1 construct: The HEK293-9B.A1 cell line, which overexpresses the BACE1 enzyme, was derived from HEK293 cells; endogenous in cells; washed 48,000 x g pellet of the cell homogenate
T1 sequence (P56817 46-501): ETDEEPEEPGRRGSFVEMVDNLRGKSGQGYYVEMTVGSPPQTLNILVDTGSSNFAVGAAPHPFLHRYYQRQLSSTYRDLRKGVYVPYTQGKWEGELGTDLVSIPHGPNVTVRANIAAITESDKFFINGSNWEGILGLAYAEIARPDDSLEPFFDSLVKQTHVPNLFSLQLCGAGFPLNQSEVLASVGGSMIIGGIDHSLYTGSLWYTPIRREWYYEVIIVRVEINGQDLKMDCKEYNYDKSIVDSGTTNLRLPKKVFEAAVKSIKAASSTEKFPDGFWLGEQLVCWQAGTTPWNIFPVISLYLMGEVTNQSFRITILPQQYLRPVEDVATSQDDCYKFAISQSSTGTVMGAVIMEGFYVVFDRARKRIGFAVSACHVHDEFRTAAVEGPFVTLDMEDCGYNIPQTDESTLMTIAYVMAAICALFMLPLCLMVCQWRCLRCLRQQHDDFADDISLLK
Type: binding
Experimental: Radioligand displacement assays with a radiolabeled BACE inhibitor (WO 2004 013098, compound 3, where the methoxy group is substituted for C(^3H)3) were carried out using standard methods (Keen, M. (1999) in Receptor Binding Techniques (Walker, J. M. ed) p. 106 Humana Press, Totowa, N.J.). The HEK293-9B.A1 cell line, which overexpresses the BACE1 enzyme, was derived from HEK293 cells (Simmons, N. L. (1990) A cultured human renal epitheloid cell line responsive to vasoactive intestinal peptide. Exp. Physiol. 75:309-19.) by RAGE™ (Harrington, J. J. et al. (2001) Creation of genome-wide protein expression libraries using random activation of gene expression. Nat. Biotechnol. 19:440-5; U.S. Pat. Nos. 6,410,266 and 6,361,972). T225 flask cultures of HEK293-9B.A1 were grown to 80% confluency in DMEM supplemented with 2 mM L-glutamine, 10 μg/ml penicillin, 10 μg/ml streptomycin, 3 μg/ml puromycin, 100 nM methotrexate, and 10% fetal bovine serum (Invitrogen, Carlsbad, Calif.), harvested, and resuspended at 2×10^8 cells per 10 ml of lysis buffer consisting of 50 mM HEPES pH 7.0 containing a protease inhibitor cocktail of AEBSF 104 μM, aprotinin 80 nM, leupeptin 2 μM, bestatin 4 μM, pepstatin A 1.5 μM, and E-64 1.4 μM (0.1% of protease inhibitor cocktail P8340, Sigma-Aldrich, St. Louis, Mo.) at 4° C. The resuspended cells were homogenized using a Polytron (Brinkman, Westbury, N.Y.) at setting 6 for 10 sec., then centrifuged at 48,000×g for 10 min. The resulting pellet was washed by repeating the resuspension, homogenization and centrifugation steps. The final pellet was resuspended in buffer at 4° C. to yield a total protein concentration of 5 mg/ml, then aliquots were frozen in liquid nitrogen for further storage at −70° C. Immediately before carrying out a binding assay, an aliquot of cell homogenate was thawed and diluted to a concentration of 100 μg/ml in assay buffer consisting of 50 mM HEPES pH 5.0 and 0.1% CHAPSO. Assays were initiated in polypropylene 96-well plates (Costar, Cambridge, Mass.) by the addition of 200 μl of cell homogenate to 50 μl of assay buffer containing 1 nM radioligand (WO 2004 013098, compound 3, where the methoxy group is substituted for C(^3H)3: 80 Ci/mMol) and various concentrations of unlabelled compounds, and incubated for 1.5 hr. at 25° C. Separation of bound from free radioligand was by filtration on GFF glass fiber filters (Innotech Biosystems International, Lansing, Mich.) using an Innotech cell harvester.
CCCN(C)C(=O)c1cc(C(=O)N[C@@H](Cc2cc(F)cc(F)c2)[C@H](O)CNCc2cccc(OC)c2)cc(/C(C)=N/OCC(C)C)c1 [Example 12, N^1-((2S,3R)-4-(3-methoxybenzylamino)-1-(3,5-difluorophenyl)-3-hydroxybutan-2-yl)-5-((E)-1-(isobutoxyimino)ethyl)-N^3-methyl-N^3-propylisophthalamide hydrochloride] gave a pIC50 greater than 7.00.
For C=CCO/N=C(\C)c1cc(C(=O)N[C@@H](Cc2cc(F)cc(F)c2)[C@H](O)CNCc2cccc(OC)c2)cc(N(C)S(C)(=O)=O)c1 [Example 34, N-((2S,3R)-4-(3-methoxybenzylamino)-1-(3,5-difluorophenyl)-3-hydroxybutan-2-yl)-3-((E)-1-(allyloxyimino)ethyl)-5-(N-methylmethan-2-ylsulfonamido)benzamide TFA salt], the pIC50 was greater than 7.00.
COc1cccc(CNC[C@@H](O)[C@H](Cc2cc(F)cc(F)c2)NC(=O)c2cc(C(C)O)cc(N(C)S(C)(=O)=O)c2)c1 (stereo partly drawn) [Example 35, N-((2S,3R)-4-(3-methoxybenzylamino)-1-(3,5-difluorophenyl)-3-hydroxybutan-2-yl)-3-(1-hydroxyethyl)-5-(N-methylmethan-2-ylsulfonamido)benzamide TFA salt] gave a pIC50 greater than 7.00.
COc1cccc(CNC[C@@H](O)[C@H](Cc2cc(F)cc(F)c2)NC(=O)c2cc(/C(C)=N/OCC(C)C)cc(N(c3ccccc3)S(C)(=O)=O)c2)c1 [Example 41, N-((2S,3R)-4-(3-methoxybenzylamino)-1-(3,5-difluorophenyl)-3-hydroxybutan-2-yl)-3-((E)-1-(isobutoxyimino)ethyl)-5-(N-phenylmethan-10-ylsulfonamido)benzamide] was tested, and the pIC50 was 6.00 to 7.00.
Compound COc1cccc(CNC[C@@H](O)[C@H](Cc2cc(F)cc(F)c2)NC(=O)c2cc(C(C)=O)cc(N(C)S(C)(=O)=O)c2)c1 [Example 29, N-((2S,3R)-4-(3-methoxybenzylamino)-1-(3,5-difluorophenyl)-3-hydroxybutan-2-yl)-3-acetyl-5-(N-methylmethan-2-ylsulfonamido)benzamide TFA salt] has a pIC50 of 6.00 to 7.00.
With CCCO/N=C(\C)c1cc(C(=O)N[C@@H](Cc2cc(F)cc(F)c2)[C@H](O)CNCc2cccc(OC)c2)cc(C(=O)N(C)CCC)c1 [Example 14, N^1-((2S,3R)-4-(3-methoxybenzylamino)-1-(3,5-difluorophenyl)-3-hydroxybutan-2-yl)-N^3-methyl-5-((E)-1-(propoxyimino)ethyl)-N^3-propylisophthalamide] the pIC50 was greater than 7.00.
Compound CCCO/N=C(\C)c1cc(C(=O)N[C@@H](Cc2cc(F)cc(F)c2)[C@H](O)CNCc2cccc(OC)c2)cc(N2CCCCS2(=O)=O)c1 [Example 26, N-[(1S,2R)-1-(3,5-difluoro-benzyl)-2-hydroxy-3-(3-methoxy-benzylamino)-propyl]-3-(1,1-dioxo-1λ^6-[1,2]thiazinan-2-yl)-5-{1-[(E)-propoxyimino]-ethyl}-benzamide TFA salt] has a pIC50 greater than 7.00.
Work on CO/N=C(\C)c1cc(C(=O)N[C@@H](Cc2cc(F)cc(F)c2)[C@H](O)CNCc2cccc(OC)c2)cc(N(c2ccccc2)S(C)(=O)=O)c1 [Example 38, N-((2S,3R)-4-(3-methoxybenzylamino)-1-(3,5-difluorophenyl)-3-hydroxybutan-2-yl)-3-((E)-1-(methoxyimino)ethyl)-5-(N-phenylmethan-10-ylsulfonamido)benzamide] yielded a pIC50 greater than 7.00.
C=CCO/N=C(/C)c1cc(C(=O)NC(C)c2ccc(F)cc2)cc(C(=O)N[C@@H](Cc2cc(F)cc(F)c2)[C@H](O)CNCc2cccc(OC)c2)c1 (stereo partly drawn) [Example 49, N^1-((2S,3R)-4-(3-methoxybenzylamino)-1-(3,5-difluorophenyl)-3-hydroxybutan-2-yl)-5-((Z)-1-(allyloxyimino)ethyl)-N^3-(1-(4-fluorophenyl)ethyl)isophthalamide TFA salt] showed a pIC50 of 6.00 to 7.00.
CO/N=C(\C)c1cc(C(=O)N[C@@H](Cc2cc(F)cc(F)c2)[C@H](O)CNCc2cccc(OC)c2)cc(N(C)S(C)(=O)=O)c1 [Example 30, N-((2S,3R)-4-(3-methoxybenzylamino)-1-(3,5-difluorophenyl)-3-hydroxybutan-2-yl)-3-((E)-1-(methoxyimino)ethyl)-5-(N-methylmethan-2-ylsulfonamido)benzamide TFA salt] showed a pIC50 greater than 7.00.
In the case of CCCN(C)C(=O)c1cc(C(C)=O)cc(C(=O)N[C@@H](Cc2cc(F)cc(F)c2)[C@H](O)CNCc2cccc(OC)c2)c1 [Example 8, N^1-((2S,3R)-4-(3-methoxybenzylamino)-1-(3,5-difluorophenyl)-3-hydroxybutan-2-yl)-5-acetyl-N^3-methyl-N^3-propylisophthalamide TFA salt], the pIC50 was greater than 7.00.
In the case of COc1cccc(CNC[C@@H](O)[C@H](Cc2cc(F)cc(F)c2)NC(=O)c2cc(C(C)O)cc(N(c3ccccc3)S(C)(=O)=O)c2)c1 (stereo partly drawn) [Example 40, N-((2S,3R)-4-(3-methoxybenzylamino)-1-(3,5-difluorophenyl)-3-hydroxybutan-2-yl)-3-(1-hydroxyethyl)-5-(N-phenylmethan-10-ylsulfonamido)benzamide], the pIC50 was greater than 7.00.
